biological target: T1, GPCR GPR40 (Homo sapiens, UniProt O14842); experiment: In-vitro FLIPR assay with recombinant cells which express the GPCR GPR40; assay type: cell-based; conditions: intracellular Ca2+ in recombinant HEK293 cells expressing GPR40, 100% = 10 μM linoleic acid
T1 construct: expressed in transfected cells; host or cells: HEK293
Description: In-Vitro FLIPR Assay with Recombinant Cells which Express the GPCR GPR40
Function-testing assays were carried out by means of the FLIPR technique (“fluorescence imaging plate reader”, Molecular Devices Corp.). For this purpose, agonist-induced alterations in the intracellular concentration of Ca^2+ in recombinant HEK293 cells which express the GPCR GPR40 were determined.
For the investigations, cells were seeded in 96-well microtiter plates (60 000 cells/well) and left to grow overnight. The medium was removed and the cells were incubated in buffer which contained the fluorescent dye Fluo-4. After this loading with dye, the cells were washed, test substance was added and alterations in the intracellular Ca^2+ concentration were measured in the FLIPR instrument. Results have been depicted as percentage alteration relative to the control (0%: no test substance added; 100%: 10 μM reference agonist linoleic acid added) used to calculate dose/activity plots and EC50 values were determined.

T1 sequence (O14842 whole entry): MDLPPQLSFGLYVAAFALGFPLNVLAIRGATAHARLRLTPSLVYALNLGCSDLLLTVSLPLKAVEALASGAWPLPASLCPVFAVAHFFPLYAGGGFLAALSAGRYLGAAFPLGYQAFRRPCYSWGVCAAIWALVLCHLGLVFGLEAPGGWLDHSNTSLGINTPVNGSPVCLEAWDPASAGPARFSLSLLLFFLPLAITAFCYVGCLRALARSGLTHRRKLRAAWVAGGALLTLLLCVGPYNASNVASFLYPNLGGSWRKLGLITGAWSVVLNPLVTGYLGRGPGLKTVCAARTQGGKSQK

| Structure (SMILES) | EC50 [nM] |
| --- | --- |
| O=C(O)CCc1ccc(NC(=O)C(=O)Nc2ccc(Cl)cc2Cl)cc1 [compound 7] | 700 |
| CC(C)c1ccc(NC(=O)C(=O)Nc2ccc(CCC(=O)O)cc2)c(C(F)(F)F)c1 [compound 9] | 100 |
| O=C(O)CCc1ccc(NC(=O)C(=O)Nc2cc(C(F)(F)F)ccc2Br)cc1 [compound 11] | 800 |
| O=C(O)CCc1ccc(NC(=O)C(=O)Nc2ccc(Br)cc2Cl)cc1 [compound 14] | 600 |

The remaining lines, values ahead:

| EC50 [nM] | Structure (SMILES) |
| --- | --- |
| 16800 | CC(C)c1ccc(NC(=O)C(=O)Nc2cccc(CCC(=O)O)c2)c(Br)c1 [compound 21] |
| 60100 | O=C(O)CCc1cccc(NC(=O)C(=O)Nc2c(Cl)c(Cl)cc(Cl)c2Cl)c1 [compound 24] |

From patent US8518875B2, “(Carboxylalkylenephenyl)phenyloxamides, method for the production thereof and use of same as a medicament” (SANOFI, priority 2007, dated 2013)
